According to ChEMBL document CHEMBL1153133, “2,4-Diaminopyrimidine MK2 inhibitors. Part I: Observation of an unexpected inhibitor binding mode” (Bioorg Med Chem Lett, 2010):

How the values were obtained:
[1] = biological target: T1, MAP kinase-activated protein kinase 2 (Homo sapiens, UniProt P49137); assay: Displacement of [8-3H]ATP from human recombinant MK2 (41-364) by scintillation proximity assay
[2] = biological target: T1, MAP kinase-activated protein kinase 2; assay: Inhibition of human recombinant phospho-MK2 (36-400) by HTRF assay
[3] = biological target: T1, MAP kinase-activated protein kinase 2; assay: Displacement of [8-3H]ATP from human recombinant MK2 (36-400) by scintillation proximity assay

T1 sequence (P49137 whole entry): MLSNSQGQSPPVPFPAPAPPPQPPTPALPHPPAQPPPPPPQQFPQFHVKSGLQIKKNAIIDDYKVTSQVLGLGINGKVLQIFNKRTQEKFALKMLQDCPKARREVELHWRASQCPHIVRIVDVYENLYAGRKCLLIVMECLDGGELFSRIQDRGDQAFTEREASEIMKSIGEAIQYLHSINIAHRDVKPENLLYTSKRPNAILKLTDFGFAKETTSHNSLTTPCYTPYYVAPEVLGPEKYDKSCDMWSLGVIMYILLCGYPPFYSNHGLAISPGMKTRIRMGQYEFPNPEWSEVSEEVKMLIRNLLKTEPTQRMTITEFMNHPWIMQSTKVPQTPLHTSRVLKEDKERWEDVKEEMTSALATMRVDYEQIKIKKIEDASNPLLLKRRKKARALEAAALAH

With `Nc1ncnc2c1ncn2[C@@H]1O[C@H](COP(=O)(O)OP(=O)(O)OP(=O)(O)O)[C@@H](O)[C@H]1O` (single isomer, unassigned) [ADENOSINE TRIPHOSPHATE] the IC50 [1] was 12 µM, the IC50 [2] was 2.8 µM and the IC50 [3] was 6.3 µM.
